Assays:
human cardiomyocytes = test: Hypoxia-induced apoptosis (TUNEL) in cardiomyocytes from human pluripotent stem cells; format: cell-based; conditions: ELA 0.5 μM
Text: Cellular mechanisms of cardioprotection in MI include the less cell death due to necrosis and apopotosis, increased angiogenesis and reduced fibrosis. […] Apelin is reported to protect against glucose deprivation-induced apoptosis in rat neonatal cardiomyocytes and to increase Akt and mTOR phosphorylation.

[1] = system: aldosterone synthase CYP11B2; test: Ang II-induced aldosterone synthase gene expression (qPCR) in HAC15 cells; format: cell-based, human; conditions: ELA 50 nM, Ang II 10 nM, 47 hours
[2] = mature ELA hormone; cited from earlier work
APJ = test: qPCR of APJ mRNA in mice infused with ELA; format: in vivo, mouse
mouse aortic rings = test: Endothelium-dependent and -independent vasorelaxation of aortic rings; conditions: for decrease of relaxation by removal of endothelium: denuded vs endothelium-intact vessels
Procedure: Aortas were isolated from 8-10 weeks male wild-type C57BL/6 mice, cut into 3-mm rings and mounted in organ chambers (PowerLab, AD Instruments, CO, USA) in Kreb's buffer as described previously (11, 12). The contractile response was elicited by vasoconstrictor U46619 (30 nM) to produce contraction. […] In some preparations, the endothelium was mechanically removed from denuded arteries by gentle rubbing off the intimal surface with a wooden stick.
Apelin is reported to relax vascular tone (14) and lower blood pressure. […] The aortic rings were induced to contraction with vasoconstrictor U46619 (final concentration, 30 nM).
To further determine whether nitric oxide (NO) participated in the relaxation, the blood vessels were pretreated with L-NAME, an NO production inhibitor. […] The effect of apelin-13 on blood vessels was studied in parallel for comparison.

HUVECs = test: In vitro angiogenesis (tube formation) assay; format: cell-based, human
Procedure: Tube formation assay for angiogenesis was conducted in 24-well plates were coated with 50 μl of Geltrex (Life Technologies, A14133-02) and left for polymerization by incubation for 1 hour at 37° C. […] Quantification of tube formation was performed after 10 hours of culture by calculating the number of branching point formed in each well under an inverted phase contrast photomicroscope (Olympus IX5O) as described^37.
ELA is a secreted hormone and expressed in adult kidney and prostate, and may, therefore, circulate in blood. […] Vascular tube formation assay is a well-used in vitro study to assess angiogenic factors and conditions in which vascular cells, e.g., human umbilical […] endothelial cells (HUVECs), can form tube-like structures under proangiogenic conditions in culture wells coated with Geltrex containing extra-cellular matrix. The number of branch points was an indicator of the strength of angiogenic stimuli.

Sprague-Dawley rats = test: MI-induced heart failure by coronary artery ligation in rats, Fc-ELA-32; format: in vivo, rat
Procedure: It was studied whether Fc-ELA fusion proteins have cardioprotective activities in heart failure caused by myocardial infarction (MI) in rats. MI was inflicted by standard left anterior descending coronary artery ligation (CAL) in Sprague-Dawley rats (8-weeks old, male). One week post-operation, recombined Fc-ELA-32 protein was administrated by subcutaneous injection at the dosage of 300 μg/kg bodyweight/day for two weeks. Phosphate-buffered saline (PBS) was used as the control. One week after the administration or at the end of the four weeks of MI, cardiac performance was evaluated by a pressure transducer which was inserted retrograde from the right carotid artery to the left ventricle cavity. Heart tissue samples were taken and fixed with 4% paraformaldehyde for 24 hours and then embedded in paraffin and sectioned for histopathologic examination.
Apoptosis was assessed by terminal deoxynucleotidyl transferase-mediated dUTP nick end labeling (TUNEL) and caspase-3 activity assay. […] TUNEL-positive nuclei in the LV free wall were counted within a 4-mm^2 square of field. […]
Masson staining which specifically stains collagens in blue was conducted on tissue sections of the infarcted heart area. Collagen volume fraction (CVF) is calculated by dividing of the blue stained area, which scattered between the surviving myocytes and around the blood vessels by the total area. […]

[3] = system: empty vector control CHO-K 1 cells; test: Parallel control experiments (cAMP, ERK, calcium) in empty vector cells; format: cell-based, Chinese hamster; conditions: cells transduced with empty vector control viruses
Text: Activation of APJ is known to result in a decrease of cAMP production, stimulation of ERK and increase in intercellular calcium mobilization (13). […] APJ-over-expressing and empty vector control CHO-K 1 cells were used in the studies. APJ expression was confirmed by RT-PCR. […] The response was dose-dependent up to the concentration of 10^−5M (FIG. 3C, lower panel).

C57/BL6 mice = test: Diuresis in anesthetized mice; format: in vivo, mouse; conditions: 200 nmol/kg intravenously, one hour collection vs baseline hour
Text: Four male C57/BL6 mice aged from 10 to 12 weeks were anesthetized with pentobarbital and then placed on a heated table to maintain body temperature and tracheotomized. Catheters were inserted into the external jugular veins for infusing normal saline to replace fluid loss and anesthesia, and into carotid artery for measuring blood pressure and heart rates. Urine was collected via a suprapubic cystostomy (PE-50-flanged end). After a 30-min stabilization period, urine was collected for a period of one hour as a baseline volume.

[4] = system: human pluripotent stem cells (PSCs); test: Cardiomyocyte differentiation from pluripotent stem cells; format: cell-based; conditions: data not shown
Text: The question of whether ELA-APJ promotes human pluripotent stem cells (PSCs) into mesoderm derivatives including mesenchymal stem cells, adipocytes and cardiomyocytes was studied. […] Without being bound by theory, the kidney is a crucial organ that maintains circulation homeostasis.

C57/BL mice = test: MI-induced heart failure by coronary artery ligation, echocardiography; format: in vivo, mouse
Procedure: C57/BL wild type mice at age of 14-16 months old were used. Mice were subjected to either MI by permanent ligation or sham treatment with a loose suture of the proximal left anterior descending (LAD) coronary artery under general anesthesia by 2% isoflurane inhalation, and mechanical ventilation via oral intubation. Left thoracotomy in the 3-4 intercostal space was performed and the pericardium was opened to expose the LV and the LAD. The artery was circled a 8-0 silk suture, and then either ligated permanently or remained loose (sham).
Twelve to 14 mice were used in each group.
Data were calculated with the accepted formulae, which have been validated in mice.
Coronary artery ligation (CAL) is a well-used procedure to create a mouse model of acute myocardial infarction (MI) and heart failure (HF). […] Echocardiography was conducted to access heart function before the procedure (baseline), and at 1 week and 5 weeks post-MI.

[5] = endothelium-intact vessels, contracted with U46619 30 nM

Compound: CSCC[C@H](NC(=O)[C@@H](NC(=O)[C@H](CC(C)C)NC(=O)[C@H](CC(N)=O)NC(=O)[C@@H](NC(=O)[C@@H]1CCCN1C(=O)[C@H](CCCNC(=N)N)NC(=O)[C@@H](N)CCC(N)=O)C(C)C)[C@@H](C)O)C(=O)N[C@@H](CCCNC(=N)N)C(=O)N[C@@H](CCCNC(=N)N)C(=O)N[C@@H](CCCCN)C(=O)N[C@@H](CC(C)C)C(=O)N[C@@H](CCCNC(=N)N)C(=O)N[C@@H](CCCCN)C(=O)N[C@@H](Cc1c[nH]cn1)C(=O)N[C@@H](CC(N)=O)C(=O)N[C@H]1CSSC[C@@H](C(=O)N[C@@H](CCSC)C(=O)N2CCC[C@H]2C(=O)N[C@@H](CC(C)C)C(=O)N[C@@H](Cc2c[nH]cn2)C(=O)N[C@@H](CO)C(=O)N[C@@H](CCCNC(=N)N)C(=O)N[C@H](C(=O)N2CCC[C@H]2C(=O)N[C@@H](Cc2ccccc2)C(=O)N2CCC[C@H]2C(=O)O)C(C)C)NC(=O)[C@H](CCCNC(=N)N)NC(=O)[C@H](CCCNC(=N)N)NC(=O)[C@H](CCC(N)=O)NC(=O)[C@H](CC(C)C)NC1=O [ELA, Elabela]
- number of TUNEL-stained cells (human cardiomyocytes): significantly reduced
- Ang II-induced gene expression of aldosterone synthase [1]: significantly suppressed
- isoelectric point [2]: exceeding 12
- APJ mRNA expression (APJ): tended to decrease
- decrease of relaxation by removal of endothelium (mouse aortic rings): about 20%
- maximum relaxation (mouse aortic rings; [5]): 73.7%
- relaxation, L-NAME-treated vs none-treated vessels (mouse aortic rings; pretreated with 1 mM L-NAME): No significant difference
- formation of tubular structures (HUVECs; APJ-knock down HUVECs): not effective
- increase in number of branch points (HUVECs; ELA 0.1 μM): 71.9%
- increase in number of branch points (HUVECs; ELA 0.5 μM): 222.8%
- increase in number of branch points (HUVECs; ELA 1 μM): 266.7%
- TUNEL green-labeled apoptotic cells in heart sections (Sprague-Dawley rats): much less green-labeled cells
- changes in cAMP, ERK ½ and calcium assays in empty vector control cells [3]: no meaningful changes
- urine volume (C57/BL6 mice): increased by about one fold
- cardiomyocyte differentiation from PSCs [4]: potent inducer of cardiomyocyte differentiation
- FS_LVD (C57/BL mice; MI mice, ELA group, Baseline): 29.65 ± 4.16%
- FS_LVPW (C57/BL mice; MI mice, ELA group, Baseline): 30.36 ± 3.65%
- IVSd (C57/BL mice; MI mice, ELA group, Baseline): 0.61 ± 0.05 mm
- IVSs (C57/BL mice; MI mice, ELA group, Baseline): 0.99 ± 0.04 mm
- LVDd (C57/BL mice; MI mice, ELA group, Baseline): 3.87 ± 0.20 mm
- LVDs (C57/BL mice; MI mice, ELA group, Baseline): 2.68 ± 0.11 mm
- LVEF (C57/BL mice; MI mice, ELA group, Baseline): 61.84 ± 7.39%
- LVPWd (C57/BL mice; MI mice, ELA group, Baseline): 0.70 ± 0.03 mm
- LVPWs (C57/BL mice; MI mice, ELA group, Baseline): 1.01 ± 0.04 mm
- FS_LVD (C57/BL mice; MI mice, ELA infusion, Week 5): 22.68 ± 1.21 %
- FS_LVPW (C57/BL mice; MI mice, ELA infusion, Week 5): 22.46 ± 4.49%
- IVSd (C57/BL mice; MI mice, ELA infusion, Week 5): 0.73 ± 0.07 mm
- IVSs (C57/BL mice; MI mice, ELA infusion, Week 5): 0.96 ± 0.11 mm
- LVDd (C57/BL mice; MI mice, ELA infusion, Week 5): 4.48 ± 0.17 mm
- LVDs (C57/BL mice; MI mice, ELA infusion, Week 5): 3.47 ± 0.16 mm
- LVEF (C57/BL mice; MI mice, ELA infusion, Week 5): 45.65 ± 2.16 %
- LVPWd (C57/BL mice; MI mice, ELA infusion, Week 5): 0.75 ± 0.05 mm
- LVPWs (C57/BL mice; MI mice, ELA infusion, Week 5): 0.97 ± 0.04 mm
- degree of left ventricular dilation and contractile dysfunction (C57/BL mice; MI mice, ELA vs vehicle): significantly mitigated
- mice died during the experimental period (C57/BL mice; MI mice, one-month experimental period, control three of nine): one of eight
- heart performance in sham op animals, vehicle vs ELA (C57/BL mice; sham op mice): no statistical difference

Compound: apelin-13 [reference compound]
- maximum relaxation (mouse aortic rings; denuded (endothelium removed) vessels): 31%
- decrease of relaxation by removal of endothelium (mouse aortic rings): 48%
- maximum relaxation (mouse aortic rings; [5]): 79%

— patent US10463716B2 (UNIVERSITY OF MARYLAND, BALTIMORE, priority 2014, dated 2019)
